Experimental data from patent US20230312643A1, “PEPTIDE DERIVATIVE WITH COLLAGENASE INHIBITORY ACTIVITY, AND USE THEREOF” (SUNMARINE BIOTECH, priority 2020, published 2023).

Key:
[1] = HaCaT cytotoxicity test (MTS cell viability); type: cell-based; settings: human, HaCaT cells (skin epidermal cells); for viability at 24 h, 1 µg/mL: 1 μg/ml; for viability at 24 h, 10 µg/mL: 10 μg/ml; for viability at 24 h, 50 µg/mL: 50 μg/ml; for viability at 24 h, 100 µg/mL: 100 μg/ml
Procedure: HaCaT cells, skin epidermal cells (derived from human), were used. The medium was DMEM low (SH30021.01, HyClone™, Logan, UT, USA) medium containing 10% fetal bovine serum (FBS, Lonza, Valais, Switzerland) medium. The cell lines were cultured in an incubator adjusted to 95% humidity, 5% CO2 and 37° C., and at this time, a medium antibiotic (Penicillin streptomycin, Gibco, Calif., USA) was used to suppress contamination or proliferation of microorganisms. When the cells covered the dish about 80%, the cells were washed with phosphated-buffered saline-EDTA (PBS-EDTA), and then the cells attached to the bottom of the dish were detached by treating with 1 ml of 0.05% trypsin EDTA, and subjected to subculture. The medium was exchanged every 48 hours to culture the cells.
Cell viability was measured using MTS (CellTiter 96® AQueous One Solution Cell Proliferation Assay, Promega, USA) reagent. The cells were divided at a concentration of 1×10^4 cells/well in a 96-well plate and then stabilized for 24 hours in an incubator controlled to 95% humidity, 5% CO2 and 37° C. After that, the samples were treated for each concentration (table 1) and cultured for 24 hours in an incubator controlled to 95% humidity, 5% CO2 and 37° C. After the medium was removed, 9 ml of medium (DMEM low, free FBS) was added to 1 ml of the reagent and diluted, and then 100 ul of the diluted solution was treated per well. After the reaction at 37° C. for 60 minutes, absorbance was measured at 490 nm with microplate reader (Molecular Devices, VersaMax ELISA Microplate Reader, USA). Cell viability was represented by absorbance of a sample-treated group compared to a control group not treated with the sample.

[2] = target: T1, elastase (Sus scrofa, UniProt P00772); experiment: Elastase inhibitory activity (EnzChek Elastase Assay Kit, DQ elastin); type: biochemical; settings: for inhibition at 20 µg/mL: 0.02 mg/ml; for inhibition at 40 µg/mL: 0.04 mg/ml; for inhibition at 60 µg/mL: 0.06 mg/ml
T1 construct: purchased Invitrogen
T1 sequence (P00772 27-266): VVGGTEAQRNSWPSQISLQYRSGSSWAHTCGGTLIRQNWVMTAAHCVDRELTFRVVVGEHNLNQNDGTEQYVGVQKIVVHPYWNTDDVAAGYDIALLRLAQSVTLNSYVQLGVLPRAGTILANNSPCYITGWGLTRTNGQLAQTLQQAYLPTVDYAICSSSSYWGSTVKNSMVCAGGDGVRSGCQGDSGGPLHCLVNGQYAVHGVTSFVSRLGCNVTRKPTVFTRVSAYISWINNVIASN
Procedure: Elastase inhibitory activity was performed by purchasing EnzChek® Elastase Assay Kit (600 Assays) reagent from Invitrogen. First, DQ elastin stock solution (1 mg/ml) was prepared by adding 1.0 ml of DDW to 1 mg DQ elastin vial. The 18 ml of DDW was added to 2 ml of 10× reaction buffer, so as to dilute reaction buffer. Then, an elastase enzyme reagent was prepared, and diluted with reaction buffer to a final concentration of 0.2 U/ml as working solution. Three samples of 50 ? each were prepared in a 96-well plate. The 50 ? of reaction buffer was added to 50 ? of DQ elastin and sample blank, and 50 ? of working solution was added to a sample, which were then left in a light-blocked state at room temperature for about one hour, and then fluorescence intensity was measured at excitation wavelength 505 nm and emission wavelength 515 nm using ELISA plate reader (VICTOR X3™, PerkinElmer, US).
Copper peptide (Comparative Example 12) and EGCg (Comparative Example 13), which is widely used as a raw material for functional cosmetics, were prepared at the same concentration and used as a positive control.
EGCg (epigallocatechin gallate) is a kind of polyphenol, which is an extract of green tea leaves, and is used as a cosmetic raw material for anti-oxidation, inflammation reduction, and wrinkle alleviation, and Copper peptide is used as a raw material for promoting wound healing, strengthening skin elasticity, and increasing subcutaneous fat layer to suppress skin aging due to excellent skin regeneration ability.

[3] = HS68 cytotoxicity test (MTS cell viability); type: cell-based; settings: human, HS68 cells (skin fibroblasts); for viability at 24 h, 1 µg/mL: HS68, 1 μg/ml; for viability at 24 h, 10 µg/mL: HS68, 10 μg/ml; for viability at 24 h, 50 µg/mL: HS68, 50 μg/ml; for viability at 24 h, 100 µg/mL: HS68, 100 μg/ml
Procedure: (§1) Skin fibroblast HS68 cells were used. The medium was DMEM high glucose (SH30243.01, HyClone™, Logan, UT, USA) medium containing 10% fetal bovine serum (FBS, Lonza, Valais, Switzerland) medium. The cell lines were cultured in an incubator adjusted to 95% humidity, 5% CO2 and 37° C., and at this time, a medium antibiotic (Penicillin streptomycin, Gibco, Calif., USA) was used to suppress contamination or proliferation of microorganisms.
(§2) Cell viability was measured using MTS (CellTiter 96® AQueous One Solution Cell Proliferation Assay, Promega, USA) reagent. The cells were divided at a concentration of 1×10^4 cells/well in a 96-well plate and then stabilized for 24 hours in an incubator controlled to 95% humidity, 5% CO2 and 37° C. After that, the samples were treated for each concentration and cultured for 24 hours in an incubator controlled to 95% j humidity, 5% CO2 and 37° C. After the medium was removed, 9 ml of medium (DMEM high, free FBS) was added to 1 ml of the reagent and diluted, and then 100 ul of the diluted solution was treated per well. After the reaction at 37° C. for 60 minutes, absorbance was measured at 490 nm with microplate reader (Molecular Devices, VersaMax ELISA Microplate Reader, USA). Cell viability was represented by absorbance of a sample-treated group compared to a control group not treated with the sample.

[4] = test system: gelatinase; experiment: Gelatinase inhibitory activity (EnzChek Gelatinase/Collagenase Assay Kit, DQ gelatin); type: biochemical
Procedure: Gelatinase is an enzyme which plays a major role in promoting skin aging by more finely degrading collagen fragments digested by MMP-1 with MMP-2, and wrinkle reduction activity was determined by measuring the inhibitory activity of the enzyme.
(§3) Gelatinase inhibitory activity was performed by purchasing EnzChek® Gelatinase/Collagenase Assay Kit (250-2000 Assays) reagent from Invitrogen. First, DQ gelatin stock solution (1 mg/ml) was prepared by adding 1.0 ml of DDW to 1 mg DQ gelatin vial. The 18 ml of DDW was added to 2 ml of 10× reaction buffer, so as to dilute reaction buffer. Then, a gelatinase enzyme reagent was prepared, and diluted with reaction buffer to a final concentration of 0.2 U/ml as working solution. Three samples of 50 ? each were prepared in a 96-well plate. The 30 ? of reaction buffer was added to 20 ? of DQ gelatin and sample blank, and 30 ? of working solution was added to a sample, which were then left in a light-blocked state at room temperature for about one to two hours, and then fluorescence intensity was measured at excitation wavelength 485 nm and 535 nm using ELISA plate reader (VICTOR X3™, PerkinElmer, US).

[5] = test system: collagenase; experiment: Collagenase inhibitory activity (EnzChek Gelatinase/Collagenase Assay Kit, DQ collagen); type: biochemical
Procedure: as §3, with “Collagenase inhibitory activity” for “Gelatinase inhibitory activity”, “First, DQ collagen stock solution” for “First, DQ gelatin stock solution”, “mg DQ collagen vial. The” for “mg DQ gelatin vial. The”, “Then, a collagenase enzyme reagent” for “Then, a gelatinase enzyme reagent”, “of DQ collagen and sample” for “of DQ gelatin and sample”, “nm and emission wavelength 535 nm” for “nm and 535 nm”
As a positive control, copper peptide (Comparative Example 12), which is a representative peptide widely used as a raw material for functional cosmetics, was prepared at the same concentration and used. Copper peptide has excellent skin regeneration ability and thus is used as a raw material to suppress skin aging by promoting wound healing, strengthening skin elasticity, and increasing subcutaneous fat layers.

[6] = test system: HS68 cells; experiment: HS68 cytotoxicity test (MTS cell viability); type: cell-based; settings: HS68, 50 μg/ml, 24 hours
Procedure: as §1, §2

[7] = target: T2, MMP1 protein (pdb1cgl) (Homo sapiens, UniProt P03956); experiment: Molecular docking (SYBYL-X 2.1.1, Surflex-Dock 2.7) of binding affinity to collagenase; settings: from Surflex-Dock total score
T2 sequence (P03956 101-269 limits assumed): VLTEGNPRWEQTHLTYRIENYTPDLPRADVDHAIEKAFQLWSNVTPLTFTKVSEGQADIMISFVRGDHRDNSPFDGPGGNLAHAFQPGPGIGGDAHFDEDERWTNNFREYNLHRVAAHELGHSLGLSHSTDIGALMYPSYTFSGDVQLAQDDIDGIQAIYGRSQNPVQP
Procedure: Molecular modeling was conducted through a computer simulation program.
Target structure: MMP1 protein (pdb1cgl)
Software: SYBYL-X 2.1.1, Surflex-Dock2.7
Through a computer simulation program, a study was conducted on how to promote collagenase enzyme inhibitory activity and percutaneous absorption during peptide modification.
Total score is a value indicating the degree of binding affinity of a docked structure including a crash and a polar interaction in the unit of pKd, and the larger the value, the higher the binding affinity. And, the similarity is a value comparing the similarity with the structure already bonded to the 1cgl, and means that the closer to 1, the more similar. The result of such docking means that the addition of an appropriate modification residue through a docking simulation of computer chemistry may increase the binding affinity and similarity.
However, when compared with the overall consensus score, a binding affinity similar to or higher than that of pdb1cgl_ligand may be expected, particularly in the modified GPN and PGN, too.

[8] = target: T2, MMP1 protein (pdb1cgl); settings: ligand binding to pdb; cited from earlier work

SMILES	viability at 24 h, 1 µg/mL [1] [%]	viability at 24 h, 10 µg/mL [1] [%]	viability at 24 h, 50 µg/mL [1] [%]	viability at 24 h, 100 µg/mL [1] [%]	inhibition at 20 µg/mL [2] [%]	inhibition at 40 µg/mL [2] [%]	inhibition at 60 µg/mL [2] [%]	inhibition at 100 µg/mL ([2]; 0.1 mg/ml) [%]	viability at 24 h, 1 µg/mL [3] [%]	viability at 24 h, 10 µg/mL [3] [%]	viability at 24 h, 100 µg/mL [3] [%]	binding affinity compared to 1cgl ligand [7]	also measured
CCCCCCCCCCCCCCCC(=O)N1CCC[C@H]1C(=O)NCC(=O)N[C@@H](CC(N)=O)C(=O)O [Pal-PGN]	115 ± 10	112 ± 3.7	113 ± 7.7	108 ± 6.5	0.3 ± 0.9	1.2 ± 2.8	1.5 ± 2	5.2 ± 2.9	106 ± 2.9	111 ± 2.8	116 ± 3.3	–	viability at 24 h, 50 µg/mL [3]: 105 ± 3.3%
CCCOC(=O)[C@H](CC(N)=O)NC(=O)CNC(=O)[C@@H]1CCCN1 [PGN-OPr, PGN(Pro-Gly-Asn)-OPr]	117 ± 9.6	126 ± 14.1	130 ± 13.3	128 ± 5.3	17.3 ± 1.1	27.5 ± 2.5	34.2 ± 0.5	77.6 ± 2.8	107 ± 2.4	107 ± 8.9	116 ± 3.6	–	inhibition at 1000 µg/mL ([2]; 1 mg/ml): 77.6%; IC50 ([2]; FIGS. 8 and 9): 216 µM; Gelatinase inhibitory activity ([4]; 0.2 mg/ml): 16.9 ± 2.7%; Gelatinase inhibitory activity ([4]; 0.3 mg/ml): 54.2 ± 6.3%; Gelatinase inhibitory activity ([4]; 0.4 mg/ml): 96.4 ± 1.8%; Gelatinase inhibitory activity ([4]; 0.5 mg/ml): 98.9%; gelatinase inhibitory activity, times higher than that of Copper peptide ([4]; 0.5 mg/ml): ~15 times; gelatinase inhibitory activity, times higher than that of EGCg ([4]; 0.5 mg/ml): about 1.3 times; Collagenase inhibitory activity ([5]; 0.05 mg/ml): 5.7 ± 3.1%; Collagenase inhibitory activity ([5]; 0.1 mg/ml): 14.3 ± 5.2%; Collagenase inhibitory activity ([5]; 0.5 mg/ml): 67.1 ± 0.8%; Collagenase inhibitory activity ([5]; 1 mg/ml): 98.7%; collagenase inhibitory activity IC50 ([5]; FIGS. 5 and 6): 508 µg/mL; viability at 24 h, 50 µg/mL [3]: 115 ± 6.9%
CN1CCC[C@H]1C(=O)NCC(=O)N[C@@H](CC(N)=O)C(=O)O [Me-PGN]	125 ± 6.1	127 ± 6.5	122 ± 3.7	126 ± 14.8	5.2 ± 1.7	6.9 ± 1.8	9.9 ± 1.5	11.2 ± 1.1	103 ± 3.9	104 ± 4.5	104 ± 5.6	–	inhibition at 1000 µg/mL ([2]; 1 mg/ml): 11.2%; Cell viability [6]: 103 ± 3.4%
O=C(O[C@@H]1Cc2c(O)cc(O)cc2O[C@@H]1c1cc(O)c(O)c(O)c1)c1cc(O)c(O)c(O)c1 [EGCg, epigallocatechin gallate, reference compound]	–	–	–	–	–	–	–	–	–	–	–	–	elastase inhibitory activity ([2]; 0.1 mg/ml): 66.1 ± 4.4%; elastase inhibitory activity ([2]; 1 mg/ml): 66.1%; Gelatinase inhibitory activity ([4]; 0.5 mg/ml): 74.7%
CCCC(=O)C(CC(N)=O)NC(=O)C1CCCN1C(=O)CNC (centres unmarked) [Me-GPN-Propyl]	–	–	–	–	–	–	–	–	–	–	–	74.7%	increase of binding affinity compared to before the modification [7]: 21.9%
NCC(=O)N1CCC[C@H]1C(=O)N[C@@H](CC(N)=O)C(=O)O [GPN, Gly-Pro-Asn, reference compound]	–	–	–	–	–	–	–	–	–	–	–	about 51.8%	–
CCCC(=O)C(CC(N)=O)NC(=O)CNC(=O)C1CCCN1C (centres unmarked) [Me-PGN-Propyl]	–	–	–	–	–	–	–	–	–	–	–	90.1%	increase of binding affinity compared to before the modification [7]: 28.6%
COC(=O)NCC[C@@H](N[C@@H](CC(C)C)C(=O)N[C@@H](Cc1ccccc1)C(=O)NCCN1CCOCC1)C(=O)O [PDB 1CGL]	–	–	–	–	–	–	–	–	–	–	–	–	Ki [8]: 0.135 µM
